Where a name gives a salt, the structure may show the parent alone. Read-outs that look alike come from different tables or passages of the source.
Assays:
Trypsin = biological target: T1, Trypsin (Bos taurus, UniProt P00760); test: Inhibitory effect on ester-hydrolyzing activity of trypsin (TAMe substrate); format: biochemical; details: for IC50 / inhibitory action on trypsin: in vitro; for IC50: tosylarginine methyl ester hydrolysis, read-out: ID50 (trypsin); for inhibition at 1000 µM: read-out: percent inhibition at 10^-3 M (trypsin)
T1 sequence (P00760 24-246): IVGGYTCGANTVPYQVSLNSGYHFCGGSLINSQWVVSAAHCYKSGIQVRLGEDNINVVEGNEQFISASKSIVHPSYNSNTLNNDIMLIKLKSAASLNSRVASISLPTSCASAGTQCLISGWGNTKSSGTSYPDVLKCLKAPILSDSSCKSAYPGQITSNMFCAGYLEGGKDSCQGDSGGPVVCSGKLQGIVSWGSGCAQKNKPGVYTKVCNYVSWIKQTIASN
Method: (A) Determination of Enzyme-inhibitory Activity: The enzyme-inhibitory activities in vitro of the compounds of this invention were measured by the following procedure according to the method of M. Muramatsu et al. [[…]. Makino, Y. Hayashi and S. Fujii: J. […] Then, 10 μmoles of the substrate, TAMe (tosylarginine methyl ester), was added, and incubation was performed at 37° C. for 30 minutes. After the incubation, 1.5 ml of 2 M alkaline hydroxylamine was added and thoroughly mixed, and allowed to stand at room temperature for 15 minutes.

Human Plasmin = Human Plasmin (Homo sapiens, UniProt P00747); test: Inhibitory effect on ester-hydrolyzing activity of human plasmin (TAMe substrate); format: biochemical; details: for inhibition at 1000 µM: read-out: percent inhibition at 10^-3 M (plasmin); for inhibitory action on plasmin: in vitro
Method: (A) Determination of Enzyme-inhibitory Activity: The enzyme-inhibitory activities in vitro of the compounds of this invention were measured by the following procedure according to the method of M. Muramatsu et al. [[…]. Makino, Y. Hayashi and S. Fujii: J. […] (2) Inhibitory Effect on Ester-hydrolyzing Activity of Human Plasmin It was measured by using 0.1 ml of plasmin (generated by activation of plasminogen with streptokinase) and TAMe as substrate following the method described in (1).

Human Cl Esterase = biological target: T2, Human Cl Esterase (Homo sapiens, UniProt P09871); test: Inhibitory effect on ester-hydrolyzing activity of human Cl esterase (ATEe substrate); format: biochemical; details: for IC50 / inhibitory action on Cl esterase: in vitro; for IC50: acetyltyrosine ethyl ester hydrolysis, read-out: ID50 (Cl esterase); for inhibition at 1000 µM: read-out: percent inhibition at 10^-3 M (Cl esterase)
T2 sequence (P09871 438-688 limits assumed): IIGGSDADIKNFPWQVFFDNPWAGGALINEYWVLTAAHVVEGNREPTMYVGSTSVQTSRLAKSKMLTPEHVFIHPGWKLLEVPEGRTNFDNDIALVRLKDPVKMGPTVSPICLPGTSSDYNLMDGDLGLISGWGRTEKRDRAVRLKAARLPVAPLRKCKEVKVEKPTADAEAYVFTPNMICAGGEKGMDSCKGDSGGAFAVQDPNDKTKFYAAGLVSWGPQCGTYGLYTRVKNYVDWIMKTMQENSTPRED
T2 sequence (P09871 16-437 partner limits assumed): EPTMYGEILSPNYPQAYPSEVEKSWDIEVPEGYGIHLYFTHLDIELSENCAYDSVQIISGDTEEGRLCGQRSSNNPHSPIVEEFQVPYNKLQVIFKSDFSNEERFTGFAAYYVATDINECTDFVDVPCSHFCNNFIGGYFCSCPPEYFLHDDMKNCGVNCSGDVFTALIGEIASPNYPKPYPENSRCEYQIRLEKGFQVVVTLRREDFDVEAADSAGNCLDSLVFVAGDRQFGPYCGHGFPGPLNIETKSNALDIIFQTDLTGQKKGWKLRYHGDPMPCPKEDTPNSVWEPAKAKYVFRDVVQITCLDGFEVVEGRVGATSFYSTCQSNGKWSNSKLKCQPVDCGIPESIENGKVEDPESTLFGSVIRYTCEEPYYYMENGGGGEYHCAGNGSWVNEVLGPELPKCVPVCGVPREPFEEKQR
Method: It was measured by using 0.1 ml of Cl esterase, 0.1 ml of 0.02 M sodium phosphate buffer solution (pH 7.4) and 10 μmoles of ATEe (acetyltyrosine ethyl ester) as substrate following the method described in (1).

Human Plasma Kallikrein = Human Plasma Kallikrein (Homo sapiens, UniProt P03952); test: Inhibitory effect on ester-hydrolyzing activity of human plasma kallikrein (TAMe substrate); format: biochemical; details: for inhibition at 1000 µM: read-out: percent inhibition at 10^-3 M (kallikrein); for inhibitory action on kallikrein: in vitro
Method: (A) Determination of Enzyme-inhibitory Activity: The enzyme-inhibitory activities in vitro of the compounds of this invention were measured by the following procedure according to the method of M. Muramatsu et al. [[…]. Makino, Y. Hayashi and S. Fujii: J.

Bovine Thrombin = Bovine Thrombin (Bos taurus, UniProt P00735); test: Inhibitory effect on ester-hydrolyzing activity of bovine thrombin (TAMe substrate); format: biochemical; details: for inhibition at 1000 µM: read-out: percent inhibition at 10^-3 M (thrombin); for inhibitory action on thrombin: in vitro
Method: (4) Inhibitory Effect on Ester-Hydrolyzing Activity of Bovine Thrombin
It was measured by using 0.4 ml of bovine thrombin […], 0.02 M sodium phosphate buffer solution (pH 7.4) and TAMe as substrate following the method described in (1).

[1] = tested on: collagen induced platelet aggregation of rabbit PRP; test: Inhibition of collagen induced platelet aggregation of rabbit PRP; format: cell-based; details: Oryctolagus cuniculus; for inhibition at 1 µg/mL: 1.0 μg/ml; for inhibition at 2.5 µg/mL: 2.5 μg/ml; for inhibition at 5 µg/mL: 5.0 μg/ml; for inhibition at 10 µg/mL: 10.0 μg/ml
Method: (B) Determination of Inhibitory Activity on Collagen Induced Platelet Aggregation:
According to the method of Born et al. [Born, G. V. R.: J. Physiol., 168. 178 (1963)], the platelet aggregation inhibition (%) was determined at various concentrations of compounds by the following procedure:
Rabbit PRP (platelet rich plasma), 0.9 ml, obtained from sodium citrate-added blood, was taken into a polyethylene tube and incubated at 37° C. for 1 minute, and then 10 μl of a compound solution or physiological saline as control, was added.
Subsequently, 0.1 ml of collagen solution was added, and change in absorbance of PRP, resulting from the progress of platelet aggregation, was determined by means of platelet aggregation meter and recorded.
Percent inhibition was calculated according to the following equation: [formula]

Chain of Human Plasmin (P00747 581-810 limits assumed): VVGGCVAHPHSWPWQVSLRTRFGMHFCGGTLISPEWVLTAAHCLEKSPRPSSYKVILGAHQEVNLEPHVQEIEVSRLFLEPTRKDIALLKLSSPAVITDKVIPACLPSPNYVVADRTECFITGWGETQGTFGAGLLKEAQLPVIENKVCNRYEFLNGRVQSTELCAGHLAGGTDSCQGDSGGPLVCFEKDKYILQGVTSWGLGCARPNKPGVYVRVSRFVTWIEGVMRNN
Chain of Human Plasmin (P00747 97-580 partner limits assumed): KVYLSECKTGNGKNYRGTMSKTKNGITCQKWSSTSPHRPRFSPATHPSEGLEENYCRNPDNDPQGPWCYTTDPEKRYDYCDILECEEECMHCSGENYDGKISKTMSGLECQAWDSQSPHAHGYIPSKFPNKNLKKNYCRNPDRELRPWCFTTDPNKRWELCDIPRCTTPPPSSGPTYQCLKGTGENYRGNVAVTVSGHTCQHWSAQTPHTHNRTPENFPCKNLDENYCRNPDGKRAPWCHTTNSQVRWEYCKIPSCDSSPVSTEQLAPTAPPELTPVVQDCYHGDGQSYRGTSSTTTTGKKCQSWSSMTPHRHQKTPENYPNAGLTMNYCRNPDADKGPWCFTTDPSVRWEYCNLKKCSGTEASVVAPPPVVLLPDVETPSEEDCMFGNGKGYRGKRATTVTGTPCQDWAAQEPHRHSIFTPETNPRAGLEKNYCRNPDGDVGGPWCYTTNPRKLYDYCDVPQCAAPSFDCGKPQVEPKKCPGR
Chain of Human Plasma Kallikrein (P03952 391-638 limits assumed): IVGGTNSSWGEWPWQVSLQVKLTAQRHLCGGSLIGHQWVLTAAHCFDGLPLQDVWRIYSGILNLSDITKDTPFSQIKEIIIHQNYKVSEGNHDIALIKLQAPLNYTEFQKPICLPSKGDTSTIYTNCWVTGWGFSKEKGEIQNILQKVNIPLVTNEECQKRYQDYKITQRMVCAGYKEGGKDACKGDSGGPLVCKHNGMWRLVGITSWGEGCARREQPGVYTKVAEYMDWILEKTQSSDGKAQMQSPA
Chain of Human Plasma Kallikrein (P03952 20-390 partner limits assumed): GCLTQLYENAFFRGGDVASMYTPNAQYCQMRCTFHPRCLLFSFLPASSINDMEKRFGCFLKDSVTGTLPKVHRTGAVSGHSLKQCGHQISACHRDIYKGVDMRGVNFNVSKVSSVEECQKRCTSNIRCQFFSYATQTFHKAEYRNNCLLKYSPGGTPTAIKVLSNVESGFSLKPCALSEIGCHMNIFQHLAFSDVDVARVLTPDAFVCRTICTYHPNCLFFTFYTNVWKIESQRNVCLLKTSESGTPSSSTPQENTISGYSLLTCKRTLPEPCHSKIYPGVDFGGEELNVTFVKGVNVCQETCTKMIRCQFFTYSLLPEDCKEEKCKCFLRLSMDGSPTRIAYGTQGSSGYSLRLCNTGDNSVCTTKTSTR

| Structure (SMILES) | IC50 (Trypsin) [µM] | inhibition at 1000 µM (Human Plasmin) [%] | IC50 (Human Cl Esterase) [µM] | inhibition at 1000 µM (Human Plasma Kallikrein) [%] | inhibition at 1000 µM (Bovine Thrombin) [%] | inhibition at 10 µg/mL [1] [%] | inhibition at 1000 µM (Human Cl Esterase) [%] | inhibition at 1000 µM (Trypsin) [%] | also measured |
| --- | --- | --- | --- | --- | --- | --- | --- | --- | --- |
| CC(Cc1ccc(NC(=N)N)cc1)C(=O)Oc1ccc(Cl)cc1 (stereo not drawn) [compound 52, p-chlorophenyl α-methyl-β-(p-guanidinophenyl)-propionate] | 490 | 18.8 | 56 | 38.4 | < 10 |  |  |  |  |
| CC(Cc1cccc(NC(=N)N)c1)C(=O)Oc1cccc2ccccc12 (stereo not drawn) [compound 50, 1-naphthyl α-methyl-β-(m-guanidinophenyl)-propionate] | 57 | 42 | 140 |  | < 10 | 100 |  |  | inhibition at 1 µg/mL [1]: 4%; inhibition at 2.5 µg/mL [1]: 100%; inhibition at 5 µg/mL [1]: 100% |
| CC(Cc1cccc(NC(=N)N)c1)C(=O)Oc1ccc(Cl)cc1 (stereo not drawn) [Compound No. 44, p-Chlorophenyl α-methyl-β-(m-guanidinophenyl)-propionate carbonate] |  |  | 250 |  |  |  |  |  |  |
| CCCCOc1ccc(OC(=O)CCc2ccc(NC(=N)N)cc2)cc1 [compound 71, p-n-butoxyphenyl β-(p-guanidinophenyl)-propionate] | 660 | 20 |  | 1.5 | < 10 |  | < 10 |  |  |
| CC(Cc1ccc(N)cc1)C(=O)Oc1ccc(Cl)cc1 (stereo not drawn) [Compound No. 2, p-Chlorophenyl α-methyl-β-(p-aminophenyl)-propionate hydrochloride] | 330 |  |  |  |  |  |  |  |  |
| CCC(Cc1cccc(N)c1)C(=O)Oc1ccc(OC)cc1 (stereo not drawn) [Compound No. 4, p-Methoxyphenyl α-ethyl-β-(m-aminophenyl)-propionate hydrochloride] |  | < 10 |  | < 10 | < 10 |  | 14.8 |  | IC50 (Trypsin; 30 min): 400 µM |
| Cc1ccc(OC(=O)CCc2ccc(N)cc2)cc1 [Compound No. 1, p-Methylphenyl β-(p-aminophenyl)-propionate hydrochloride] |  | < 10 |  | < 10 |  | 42 | < 10 | < 10 | IC50 (Bovine Thrombin): 880 µM |
| COc1ccc(OC(=O)CCc2ccc(N)cc2)cc1 [compound 32, p-methoxyphenyl β-(p-aminophenyl)-propionate] |  | < 10 |  | < 10 |  | 100 | < 10 | 38.8 | IC50 (Bovine Thrombin): 170 µM; inhibition at 2.5 µg/mL [1]: 41%; inhibition at 5 µg/mL [1]: 100% |
| Cl.Nc1ccc(CCC(=O)Oc2ccccc2)cc1 [Compound No. 3, Phenyl β-(p-aminophenyl)-propionate hydrochloride] |  | < 10 |  | < 10 |  |  | < 10 | < 10 | inhibitory action on trypsin (Trypsin): no inhibitory action; inhibitory action on plasmin (Human Plasmin): no inhibitory action; inhibitory action on Cl esterase (Human Cl Esterase): no inhibitory action; inhibitory action on kallikrein (Human Plasma Kallikrein): no inhibitory action; IC50 (Bovine Thrombin): 290 µM |
| CCCCOc1ccc(OC(=O)CCc2ccc(N)cc2)cc1 [compound 33, p-n-butoxyphenyl β-(p-aminophenyl)-propionate] | 890 | < 10 |  | < 10 | 19.9 | 100 | < 10 |  | inhibition at 0.5 µg/mL ([1]; 0.5 μg/ml): 46%; inhibition at 1 µg/mL [1]: 100%; inhibition at 2.5 µg/mL [1]: 100%; inhibition at 5 µg/mL [1]: 100% |
| CC(Cc1cccc(NC(=N)N)c1)C(=O)Oc1ccccc1.O=C(O)O (stereo not drawn) [Compound No. 46, Phenyl α-methyl-β-(m-guanidinophenyl)-propionate carbonate] |  | < 10 | 310 | 12.9 | < 10 |  |  | 12.2 | inhibitory action on trypsin (Trypsin): no inhibitory action; inhibitory action on plasmin (Human Plasmin): no inhibitory action; inhibitory action on kallikrein (Human Plasma Kallikrein): no inhibitory action; inhibitory action on thrombin (Bovine Thrombin): no inhibitory action |
| CCC(Cc1cccc(N)c1)C(=O)Oc1cccc2ccccc12 (stereo not drawn) [Compound No. 7, 1-naphthyl α-ethyl-β-(m-aminophenyl)-propionate] | 10 | < 10 |  |  | < 10 | 100 | 11.7 |  | inhibition at 2.5 µg/mL [1]: 37%; inhibition at 5 µg/mL [1]: 84% |
| Cc1ccc(OC(=O)C(C)Cc2ccc(NC(=N)N)cc2)cc1 (stereo not drawn) [Compound No. 45, p-Methylphenyl α-methyl-β-(p-guanidinophenyl)-propionate hydrochloride] |  | < 10 | 780 | < 10 | < 10 |  |  | 21.4 |  |
| CC(Cc1cccc(N)c1)C(=O)Oc1ccc(Cl)cc1 (stereo not drawn) [compound 5, p-chlorophenyl α-methyl-β-(m-aminophenyl)-propionate] | 10 | < 10 |  | < 10 | < 10 |  | < 10 |  |  |
| CCOC(=O)c1ccc(OC(=O)CCc2ccc(NC(=N)N)cc2)cc1.Cl [Compound No. 47, p-Ethoxycarbonylphenyl β-(p-guanidinophenyl)-propionate hydrochloride] | 78 | < 10 |  | 36 | 12.3 |  | < 10 |  | inhibitory action on plasmin (Human Plasmin): no inhibitory action; inhibitory action on Cl esterase (Human Cl Esterase): no inhibitory action; inhibitory action on kallikrein (Human Plasma Kallikrein): no inhibitory action; inhibitory action on thrombin (Bovine Thrombin): no inhibitory action |
| CCC(Cc1cccc(NC(=N)N)c1)C(=O)Oc1ccccc1 (stereo not drawn) [compound 65, phenyl α-ethyl-β-(m-guanidinophenyl)-propionate] |  | < 10 | 70 | 15.6 | 16.8 |  |  | 35 |  |
| CCOC(=O)c1ccc(OC(=O)C(CC)Cc2ccc(N)cc2)cc1 (stereo not drawn) [compound 36, p-ethoxycarbonylphenyl α-ethyl-β-(p-aminophenyl)-propionate] | 170 | < 10 |  | 15.9 | 25.3 |  | < 10 |  |  |
| CC(=O)Oc1ccccc1C(=O)O [aspirin, reference compound] |  |  |  |  |  | 100 |  |  | inhibition at 5 µg/mL [1]: 78% |

— patent publication US4182897A, “Amino- or guanidino-phenylpropionic acid derivatives” (Torii & Co., Ltd., priority 1977, dated 1980)
